Data taken from US7863033B2, “Lactobacillus living body activating Lactobacillus preparation and preventive or therapeutic agent for living body infection” (BHPH Company Limited, priority 2003, dated 2011).
Like-named read-outs stand apart in the source and are kept apart here.

Legend:
mouse skin wound = assay: Recovery of mouse skin wounds with bactericidal disinfectants (Test Example 5); type: in vivo
bacteria in plaque = assay: Live cell counts in plaque soaked in disinfectant (Test Example 4); type: cell-based; conditions: 60 minutes of immersion
acute colitis patients = assay: Treatment of acute infection patients (Example 15, Comparative Example 1); conditions: method A: Cefaclor alone 1000 mg/day for 5 days
[1] = system: acute bronchitis patients; conditions: method A: Cefaclor alone; cited from earlier work
acute cystitis patients [2] = conditions: method A: Cephalexin alone; cited from earlier work
conjunctivitis patients = assay: Treatment of acute infection patients (Example 15, Comparative Example 1); conditions: epidemic conjunctivitis; method A: Ofloxacin alone
acute cystitis patients [3] = assay: as above; conditions: method A: minocycline alone 1000 mg/day for 5 days
[4] = applied every morning and night

In the case of `CC(O)C(=O)O.CCOc1ccc2nc3cc(N)ccc3c(N)c2c1` [Acrinol], the “Recovery: Complete recovery (coat regrown)” value (mouse skin wound; [4]) is reported as 40 days, the “Recovery: Skin close to original thickness” value (mouse skin wound; [4]) is reported as 15 days and the “Recovery: Thin skin overall” value (mouse skin wound; applied every morning and night to about 1 cm^2 peeled mouse skin) is reported as 5 days. For the same compound, the “survival of bacteria inside the plaque” value (bacteria in plaque) was “half of the cells surviving”.
In the case of `N[C@@H](C(=O)N[C@@H]1C(=O)N2C(C(=O)O)=C(Cl)CS[C@H]12)c1ccccc1` [Cefaclor], the “Upset of intestinal flora” value (acute colitis patients) is listed as “++” and the “Upset of intestinal flora” value [1] is listed as “++”.
For `CC1=C(C(=O)O)N2C(=O)[C@@H](NC(=O)[C@H](N)c3ccccc3)[C@H]2SC1` [Cephalexin], the “Upset of intestinal flora” value (acute cystitis patients [2]) is listed as “++”.
In the case of `CC1COc2c(N3CCN(C)CC3)c(F)cc3c(=O)c(C(=O)O)cn1c23` (stereo not drawn) [Ofloxacin], the “Upset of intestinal flora” value (conjunctivitis patients) is reported as “−”.
In the case of `CN(C)c1ccc(O)c2c1C[C@H]1C[C@H]3[C@H](N(C)C)C(O)=C(C(N)=O)C(=O)[C@@]3(O)C(O)=C1C2=O` [minocycline], the “Upset of intestinal flora” value (acute cystitis patients [3]) is reported as “++”.
